Reference: ChEMBL document CHEMBL5385941, “Synthesis and biological evaluation of hydantoin derivatives as potent antiplasmodial agents” (Bioorg Med Chem Lett, 2024)

What was measured:
[1] = tested on: Plasmodium falciparum; assay: Antiplasmodial activity against Plasmodium falciparum 3D7 trophozoites assessed as parasite growth inhibition; type: functional, organism-based
[2] = Cytotoxicity against human MRC5 cells assessed as cell growth inhibition measured after 24 hrs by MTT assay; type: toxicity, cell-based
[3] = Cytotoxicity against human MRC5 cells assessed as cell viability at 3.125 to 100 uM measured after 24 hrs by MTT assay relative to control; type: toxicity, cell-based; settings: dose 3.125-100 µM, read-out: Activity

| Compound | IC50 [1] | IC50 at 24 h [2] | viability at 24 h, up to 100 µM [3] |
| --- | --- | --- | --- |
| C[C@H]1NC(=O)NC1=O | 916 µM | > 100 µM | > 80% |
| O=C1NC(=O)[C@@H](c2ccccc2)N1 | > 1000 µM | > 100 µM | > 80% |
| CSCC[C@H]1NC(=O)NC1=O | > 1000 µM | > 100 µM | > 80% |
| Cc1ccc(S(=O)(=O)N2C(=O)CNC2=O)cc1 | 0.00397 µM | > 100 µM | > 80% |
| CC(C)C(=O)N1C(=O)N[C@H](c2ccccc2)C1=O | 27.5 µM | > 100 µM | > 80% |
| O=C1CNC(=O)N1C(=O)c1cc([N+](=O)[O-])cc([N+](=O)[O-])c1 | 625 µM | > 100 µM | > 80% |
| CC(C)C(=O)N1C(=O)CNC1=O | > 1000 µM | > 100 µM | > 80% |
| O=C1CNC(=O)N1C(=O)Cc1ccccc1 | 748 µM | > 100 µM | > 80% |
| CC(=O)N1C(=O)CNC1=O | 147 µM | > 100 µM | > 80% |
| O=C1CNC(=O)N1 [HYDANTOIN] | 623 µM | > 100 µM | > 80% |
